Measurements taken from patent publication EP4722207A1, “OXOISOINDOLINYL-SUBSTITUTED TETRAHYDROPYRIMIDINEDIONE DERIVATIVE AND USE THEREOF” (Gluetacs Therapeutics (Shanghai) Co., Ltd., priority 2023, dated 2024).

What was measured:
Type in all cases: cell-based
Settings in all cases: compounds at 50 nM and 500 nM, 24 hours
[1] = target: T1, IKZF1 (Homo sapiens, UniProt Q13422+Q96SW2); test: Western-blot assay, substrate protein degradation in hPBMCs: IKZF1
T1 construct: effects of the compounds of the present disclosure on the expression of target proteins in cells; endogenous in cells; host or cells: human PBMCs (hPBMCs)

[2] = target: T2, CK1α (Homo sapiens, UniProt P48729+Q96SW2); test: Western-blot assay, substrate protein degradation in hPBMCs: CK1α
T2 construct: effects of the compounds of the present disclosure on the expression of target proteins in cells; endogenous in cells; host or cells: human PBMCs (hPBMCs)

[3] = target: T3, WEE1 (Homo sapiens, UniProt P30291+Q96SW2); test: Western-blot assay, substrate protein degradation in hPBMCs: WEE1
T3 construct: effects of the compounds of the present disclosure on the expression of target proteins in cells; endogenous in cells; host or cells: human PBMCs (hPBMCs)

[4] = target: T4, GSPT1 (Homo sapiens, UniProt P15170+Q96SW2); test: Western-blot assay, substrate protein degradation in hPBMCs: GSPT1
T4 construct: effects of the compounds of the present disclosure on the expression of target proteins in cells; endogenous in cells; host or cells: human PBMCs (hPBMCs)

[5] = target: T5, IKZF3 (Homo sapiens, UniProt Q96SW2+Q9UKT9); test: Western-blot assay, substrate protein degradation in hPBMCs: IKZF3
T5 construct: effects of the compounds of the present disclosure on the expression of target proteins in cells; endogenous in cells; host or cells: human PBMCs (hPBMCs)

[6] = target: T6, IKZF2 (Homo sapiens, UniProt Q96SW2+Q9UKS7); test: Western-blot assay, substrate protein degradation in hPBMCs: IKZF2
T6 construct: effects of the compounds of the present disclosure on the expression of target proteins in cells; endogenous in cells; host or cells: human PBMCs (hPBMCs)
T6 sequence (Q9UKS7 whole entry): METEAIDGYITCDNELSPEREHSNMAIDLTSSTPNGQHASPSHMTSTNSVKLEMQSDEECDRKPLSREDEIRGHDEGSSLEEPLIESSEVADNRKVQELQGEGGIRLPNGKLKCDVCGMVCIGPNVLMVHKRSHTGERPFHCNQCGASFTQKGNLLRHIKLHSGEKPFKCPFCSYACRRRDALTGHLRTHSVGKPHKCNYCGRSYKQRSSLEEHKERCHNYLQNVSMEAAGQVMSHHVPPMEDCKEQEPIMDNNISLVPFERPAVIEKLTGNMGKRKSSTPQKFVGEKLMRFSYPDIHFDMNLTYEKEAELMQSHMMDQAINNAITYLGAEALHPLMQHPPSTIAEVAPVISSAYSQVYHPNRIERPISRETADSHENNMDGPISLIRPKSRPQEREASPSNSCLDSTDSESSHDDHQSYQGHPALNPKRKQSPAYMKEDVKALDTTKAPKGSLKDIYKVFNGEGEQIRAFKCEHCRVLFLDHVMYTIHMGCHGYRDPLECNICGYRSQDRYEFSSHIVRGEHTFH
T6 sequence (Q96SW2 whole entry): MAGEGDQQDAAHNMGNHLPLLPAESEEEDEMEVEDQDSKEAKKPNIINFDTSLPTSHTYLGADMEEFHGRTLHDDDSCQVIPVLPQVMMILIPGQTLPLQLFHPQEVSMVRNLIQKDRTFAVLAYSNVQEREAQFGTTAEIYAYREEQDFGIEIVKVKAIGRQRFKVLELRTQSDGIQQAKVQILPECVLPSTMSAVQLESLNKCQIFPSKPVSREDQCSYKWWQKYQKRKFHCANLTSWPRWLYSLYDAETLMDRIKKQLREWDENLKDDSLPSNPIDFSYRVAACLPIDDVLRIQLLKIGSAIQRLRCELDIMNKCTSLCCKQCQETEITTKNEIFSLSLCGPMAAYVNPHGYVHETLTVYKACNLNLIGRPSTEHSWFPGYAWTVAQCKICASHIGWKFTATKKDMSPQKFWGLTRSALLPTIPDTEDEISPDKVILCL
T6 sequence (Q16531 whole entry partner): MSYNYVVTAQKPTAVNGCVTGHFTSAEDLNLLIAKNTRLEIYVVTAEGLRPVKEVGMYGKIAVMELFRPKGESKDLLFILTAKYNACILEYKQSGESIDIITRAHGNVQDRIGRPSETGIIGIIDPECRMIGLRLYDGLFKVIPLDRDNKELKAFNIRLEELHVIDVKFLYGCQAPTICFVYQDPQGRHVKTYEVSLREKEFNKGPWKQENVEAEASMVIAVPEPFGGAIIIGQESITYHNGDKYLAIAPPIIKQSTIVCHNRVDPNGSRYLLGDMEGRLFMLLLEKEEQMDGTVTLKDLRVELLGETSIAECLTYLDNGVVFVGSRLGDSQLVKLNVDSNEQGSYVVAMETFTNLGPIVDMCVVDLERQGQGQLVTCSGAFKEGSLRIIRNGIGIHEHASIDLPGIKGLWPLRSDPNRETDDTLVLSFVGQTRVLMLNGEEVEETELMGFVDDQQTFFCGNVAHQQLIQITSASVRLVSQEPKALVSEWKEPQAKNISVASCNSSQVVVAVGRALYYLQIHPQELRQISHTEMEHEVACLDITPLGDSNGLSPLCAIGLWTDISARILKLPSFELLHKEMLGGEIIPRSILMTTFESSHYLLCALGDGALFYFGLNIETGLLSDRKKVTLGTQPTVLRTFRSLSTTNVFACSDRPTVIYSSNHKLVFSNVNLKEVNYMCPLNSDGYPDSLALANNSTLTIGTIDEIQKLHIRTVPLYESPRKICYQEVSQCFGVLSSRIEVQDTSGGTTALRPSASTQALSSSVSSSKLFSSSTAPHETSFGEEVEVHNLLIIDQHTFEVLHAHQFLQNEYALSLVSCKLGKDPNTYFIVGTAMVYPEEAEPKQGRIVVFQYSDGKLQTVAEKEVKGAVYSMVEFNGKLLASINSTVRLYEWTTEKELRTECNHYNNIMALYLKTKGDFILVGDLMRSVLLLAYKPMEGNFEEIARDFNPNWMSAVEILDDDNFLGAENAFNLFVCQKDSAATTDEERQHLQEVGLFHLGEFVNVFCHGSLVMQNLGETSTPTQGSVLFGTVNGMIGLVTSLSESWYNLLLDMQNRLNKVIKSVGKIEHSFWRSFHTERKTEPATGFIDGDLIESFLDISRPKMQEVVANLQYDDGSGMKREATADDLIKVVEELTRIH

T3 sequence (P30291 whole entry): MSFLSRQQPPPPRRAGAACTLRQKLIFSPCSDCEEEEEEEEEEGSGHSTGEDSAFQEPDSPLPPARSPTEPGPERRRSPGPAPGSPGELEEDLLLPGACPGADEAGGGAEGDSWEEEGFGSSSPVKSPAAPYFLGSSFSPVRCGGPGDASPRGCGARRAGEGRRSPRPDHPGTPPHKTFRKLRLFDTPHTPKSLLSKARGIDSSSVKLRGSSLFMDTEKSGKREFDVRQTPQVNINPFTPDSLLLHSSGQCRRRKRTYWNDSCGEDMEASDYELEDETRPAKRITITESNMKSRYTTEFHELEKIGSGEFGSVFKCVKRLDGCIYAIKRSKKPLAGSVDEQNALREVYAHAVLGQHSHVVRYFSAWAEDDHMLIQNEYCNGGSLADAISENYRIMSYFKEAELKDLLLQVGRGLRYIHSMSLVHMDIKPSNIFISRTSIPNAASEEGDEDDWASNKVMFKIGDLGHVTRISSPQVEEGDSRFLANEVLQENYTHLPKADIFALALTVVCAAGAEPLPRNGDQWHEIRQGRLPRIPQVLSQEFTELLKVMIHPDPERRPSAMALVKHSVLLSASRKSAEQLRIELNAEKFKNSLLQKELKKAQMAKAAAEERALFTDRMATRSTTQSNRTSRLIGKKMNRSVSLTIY
T3 sequence (Q96SW2 whole entry): as the sequence (Q96SW2 whole entry) above
T3 sequence (Q16531 whole entry partner): as the sequence (Q16531 whole entry partner) above
T4 sequence (P15170 whole entry): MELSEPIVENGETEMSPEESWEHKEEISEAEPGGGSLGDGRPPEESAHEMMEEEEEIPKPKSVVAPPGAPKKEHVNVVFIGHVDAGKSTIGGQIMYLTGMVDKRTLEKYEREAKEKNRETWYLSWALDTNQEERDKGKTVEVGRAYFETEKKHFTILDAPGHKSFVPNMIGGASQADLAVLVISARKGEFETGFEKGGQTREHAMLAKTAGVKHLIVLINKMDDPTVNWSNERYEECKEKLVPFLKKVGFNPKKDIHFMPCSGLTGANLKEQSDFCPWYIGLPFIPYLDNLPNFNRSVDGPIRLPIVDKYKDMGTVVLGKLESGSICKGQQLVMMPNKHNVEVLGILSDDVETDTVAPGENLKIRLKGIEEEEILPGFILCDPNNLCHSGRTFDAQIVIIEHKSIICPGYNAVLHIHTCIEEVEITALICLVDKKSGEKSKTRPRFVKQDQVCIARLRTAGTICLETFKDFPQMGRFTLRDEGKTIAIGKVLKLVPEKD
T4 sequence (Q96SW2 whole entry): as the sequence (Q96SW2 whole entry) above
T4 sequence (Q16531 whole entry partner): as the sequence (Q16531 whole entry partner) above
T1 sequence (Q13422 whole entry): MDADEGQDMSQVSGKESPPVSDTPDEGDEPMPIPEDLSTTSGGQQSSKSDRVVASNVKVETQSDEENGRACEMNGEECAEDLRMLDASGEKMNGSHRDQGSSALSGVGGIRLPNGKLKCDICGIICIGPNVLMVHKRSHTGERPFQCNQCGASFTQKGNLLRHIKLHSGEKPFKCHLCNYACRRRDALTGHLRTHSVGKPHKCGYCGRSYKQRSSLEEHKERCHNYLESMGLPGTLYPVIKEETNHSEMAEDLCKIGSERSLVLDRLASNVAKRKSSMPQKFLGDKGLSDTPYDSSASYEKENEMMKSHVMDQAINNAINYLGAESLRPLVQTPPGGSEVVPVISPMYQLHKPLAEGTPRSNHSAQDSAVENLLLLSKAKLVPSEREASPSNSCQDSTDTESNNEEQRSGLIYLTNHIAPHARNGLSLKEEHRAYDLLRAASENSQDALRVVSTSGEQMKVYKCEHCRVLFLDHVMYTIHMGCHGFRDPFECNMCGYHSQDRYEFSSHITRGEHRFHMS
T1 sequence (Q96SW2 whole entry): as the sequence (Q96SW2 whole entry) above
T1 sequence (Q16531 whole entry partner): as the sequence (Q16531 whole entry partner) above
T5 sequence (Q9UKT9 whole entry): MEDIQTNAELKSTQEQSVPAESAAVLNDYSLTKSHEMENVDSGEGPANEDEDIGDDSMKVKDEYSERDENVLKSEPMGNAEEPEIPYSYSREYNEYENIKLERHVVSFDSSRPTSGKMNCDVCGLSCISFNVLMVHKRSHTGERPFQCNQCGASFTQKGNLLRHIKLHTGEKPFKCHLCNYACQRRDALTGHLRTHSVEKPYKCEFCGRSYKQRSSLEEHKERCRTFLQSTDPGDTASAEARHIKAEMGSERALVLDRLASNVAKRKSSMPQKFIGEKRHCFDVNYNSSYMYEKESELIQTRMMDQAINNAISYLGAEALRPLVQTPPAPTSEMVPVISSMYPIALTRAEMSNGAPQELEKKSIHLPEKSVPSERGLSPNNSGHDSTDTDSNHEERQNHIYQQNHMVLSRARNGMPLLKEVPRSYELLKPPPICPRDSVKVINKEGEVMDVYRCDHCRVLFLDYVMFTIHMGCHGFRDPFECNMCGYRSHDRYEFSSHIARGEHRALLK
T5 sequence (Q96SW2 whole entry): as the sequence (Q96SW2 whole entry) above
T5 sequence (Q16531 whole entry partner): as the sequence (Q16531 whole entry partner) above

Compound: O=C1CCN(N2Cc3cc(CN4CCN(c5c(Cl)cncc5Br)CC4)ccc3C2=O)C(=O)N1 [GT-07170, 1-(5-((4-(3-bromo-5-chloropyridin-4-yl)piperazin-1-yl)methyl)-1-oxoisoindolin-2-yl)dihydropyrimidine-2,4(1H,3H)-dione]
- IKZF1 substrate protein remaining % [1]: A ("A" is defined as 0% ≤ substrate protein remaining % ≤ 80%)
- CK1α substrate protein remaining % [2]: B ("B" is defined as 80%< substrate protein remaining %≤ 100%)
- WEE1 substrate protein remaining % [3]: A ("A" is defined as 0% ≤ substrate protein remaining % ≤ 80%)
- GSPT1 substrate protein remaining % [4]: B ("B" is defined as 80%< substrate protein remaining %≤ 100%)
- IKZF3 substrate protein remaining % [5]: B ("B" is defined as 80%< substrate protein remaining %≤ 100%)
- IKZF2 substrate protein remaining % [6]: B ("B" is defined as 80%< substrate protein remaining %≤ 100%)

Compound: O=C1CCN(N2Cc3cc(CN4CCN(c5c(F)cncc5Cl)CC4)ccc3C2=O)C(=O)N1 [GT-07171]
- IKZF1 substrate protein remaining % [1]: B ("B" is defined as 80%< substrate protein remaining %≤ 100%)
- CK1α substrate protein remaining % [2]: B ("B" is defined as 80%< substrate protein remaining %≤ 100%)
- WEE1 substrate protein remaining % [3]: A ("A" is defined as 0% ≤ substrate protein remaining % ≤ 80%)
- GSPT1 substrate protein remaining % [4]: B ("B" is defined as 80%< substrate protein remaining %≤ 100%)
- IKZF3 substrate protein remaining % [5]: B ("B" is defined as 80%< substrate protein remaining %≤ 100%)
- IKZF2 substrate protein remaining % [6]: B ("B" is defined as 80%< substrate protein remaining %≤ 100%)

Compound: O=C1CCN(N2C(=O)c3ccc(CN4CCN(c5ncccn5)CC4)cc3C2=O)C(=O)N1 [GT-07285, 2-(2,4-dioxotetrahydropyrimidin-1(2H)-yl)-5-((4-(pyrimidin-2-yl)piperazin-1-yl)methyl)isoindoline-1,3-dione]
- IKZF1 substrate protein remaining % [1]: A ("A" is defined as 0% ≤ substrate protein remaining % ≤ 80%)
- CK1α substrate protein remaining % [2]: B ("B" is defined as 80%< substrate protein remaining %≤ 100%)
- WEE1 substrate protein remaining % [3]: A ("A" is defined as 0% ≤ substrate protein remaining % ≤ 80%)
- GSPT1 substrate protein remaining % [4]: B ("B" is defined as 80%< substrate protein remaining %≤ 100%)
- IKZF3 substrate protein remaining % [5]: B ("B" is defined as 80%< substrate protein remaining %≤ 100%)
- IKZF2 substrate protein remaining % [6]: B ("B" is defined as 80%< substrate protein remaining %≤ 100%)

Compound: O=C1CCN(N2C(=O)c3ccc(CN4CCN(c5nccc(Cl)c5Br)CC4)cc3C2=O)C(=O)N1 [GT-07291, 5-((4-(3-bromo-4-chloropyridin-2-yl)piperazin-1-yl)methyl)-2-(2,4-dioxotetrahydropyrimidin-1(2H)-yl)isoindoline-1,3-dione]
- IKZF1 substrate protein remaining % [1]: B ("B" is defined as 80%< substrate protein remaining %≤ 100%)
- CK1α substrate protein remaining % [2]: B ("B" is defined as 80%< substrate protein remaining %≤ 100%)
- WEE1 substrate protein remaining % [3]: A ("A" is defined as 0% ≤ substrate protein remaining % ≤ 80%)
- GSPT1 substrate protein remaining % [4]: A ("A" is defined as 0% ≤ substrate protein remaining % ≤ 80%)
- IKZF3 substrate protein remaining % [5]: B ("B" is defined as 80%< substrate protein remaining %≤ 100%)
- IKZF2 substrate protein remaining % [6]: B ("B" is defined as 80%< substrate protein remaining %≤ 100%)

Compound: O=C1CCN(N2C(=O)c3ccc(CN4CCCN(C(c5ccccc5)c5ccccc5)CC4)cc3C2=O)C(=O)N1 [GT-07295, 5-((4-benzhydryl-1,4-diazepan-1-yl)methyl)-2-(2,4-dioxotetrahydropyrimidin-1(2H)-yl)isoindoline-1,3-dione]
- IKZF1 substrate protein remaining % [1]: B ("B" is defined as 80%< substrate protein remaining %≤ 100%)
- CK1α substrate protein remaining % [2]: B ("B" is defined as 80%< substrate protein remaining %≤ 100%)
- WEE1 substrate protein remaining % [3]: B ("B" is defined as 80%< substrate protein remaining %≤ 100%)
- GSPT1 substrate protein remaining % [4]: A ("A" is defined as 0% ≤ substrate protein remaining % ≤ 80%)
- IKZF3 substrate protein remaining % [5]: B ("B" is defined as 80%< substrate protein remaining %≤ 100%)
- IKZF2 substrate protein remaining % [6]: B ("B" is defined as 80%< substrate protein remaining %≤ 100%)
